Laboratory results: ChEMBL document CHEMBL1201862, “PubChem BioAssay data set” (2004)
Counter-ions that a name gives are not always drawn.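 Each compound was tested at five concentrations against cells in 96-well plates for 48 hours. The concentration for 50% growth inhibition is given as GI50.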 Active and inactive are the calls of the source. Cut-off read from the data, not from the text of the source: active = GI50 up to about 1.1 µM and inactive = higher.

Key:
Assay in all cases: DTP human tumour cell line panel, 48 h
A549 = system: A549
ACHN = system: ACHN
CCRF-CEM = system: CCRF-CEM
EKVX = system: EKVX
HOP-92 = system: HOP-92
K562 = system: K562
LOX IMVI = system: LOX IMVI
MOLT-4 = system: MOLT-4
Malme-3M = system: Malme-3M
NCI-H226 = system: NCI-H226
NCI-H522 = system: NCI-H522
OVCAR-4 = system: OVCAR-4
RXF 393 = system: RXF 393
SF-295 = system: SF-295
SK-MEL-5 = system: SK-MEL-5
SK-OV-3 = system: SK-OV-3
SNB-75 = system: SNB-75
SW-620 = system: SW-620
U-251 = system: U-251
UACC-62 = system: UACC-62

Row | SMILES | GI50 (A549) | GI50 (ACHN) | GI50 (CCRF-CEM) | GI50 (EKVX) | GI50 (HOP-92) | GI50 (K562) | GI50 (LOX IMVI) | GI50 (MOLT-4) | GI50 (Malme-3M) | GI50 (NCI-H226) | GI50 (NCI-H522) | GI50 (OVCAR-4) | GI50 (RXF 393) | GI50 (SF-295) | GI50 (SK-MEL-5) | GI50 (SK-OV-3) | GI50 (SNB-75) | GI50 (SW-620) | GI50 (U-251) | GI50 (UACC-62)
1 | O=S1(=O)C[C@H](NCc2ccccc2)[C@H](NCc2ccccc2)C1 | > 100 µM (inactive) | > 100 µM (inactive) | 29.4 µM (inactive) | > 100 µM (inactive) | > 100 µM (inactive) | 54.5 µM (inactive) | > 100 µM (inactive) | 23.8 µM (inactive) | > 100 µM (inactive) | > 100 µM (inactive) | 17.6 µM (inactive) | > 100 µM (inactive) | > 100 µM (inactive) | > 100 µM (inactive) | > 100 µM (inactive) | > 100 µM (inactive) | > 100 µM (inactive) | > 100 µM (inactive) | 93.8 µM (inactive) | > 100 µM (inactive)
2 | COC(=O)NN1C(=O)C(=P(c2ccccc2)(c2ccccc2)c2ccccc2)C(C(=O)OC)=C1C |  | > 100 µM (inactive) | > 100 µM (inactive) | > 100 µM (inactive) | 12.6 µM (inactive) | > 100 µM (inactive) | > 100 µM (inactive) | > 100 µM (inactive) | > 100 µM (inactive) | > 100 µM (inactive) | > 100 µM (inactive) |  |  | > 100 µM (inactive) | > 100 µM (inactive) | > 100 µM (inactive) | > 100 µM (inactive) | > 100 µM (inactive) | > 100 µM (inactive) | > 100 µM (inactive)
3 | O=C(/C=C1\Nc2ncccc2N=C1CC(=O)c1ccccc1)c1ccccc1 | 6.05 µM (inactive) | 4.94 µM (inactive) | 2.49 µM (inactive) |  | 3.52 µM (inactive) | 5.11 µM (inactive) | 5.12 µM (inactive) | 3.4 µM (inactive) | 37.4 µM (inactive) |  | 11 µM (inactive) | 9.2 µM (inactive) |  | 4.44 µM (inactive) | 4.16 µM (inactive) | 12 µM (inactive) | 20.4 µM (inactive) | 5.52 µM (inactive) | 3.24 µM (inactive) | 2.84 µM (inactive)
4 | Nc1nnc(O)c2c1c(I)cn2C1OC(CO)C(O)C1O (stereo not drawn) | 2.07 µM (inactive) | 0.592 µM (active) | 0.129 µM (active) | 1.3 µM (inactive) | 0.805 µM (active) | 0.75 µM (active) | 0.112 µM (active) | 0.0474 µM (active) | 0.778 µM (active) | 3.04 µM (inactive) |  | 1.3 µM (inactive) | 1.06 µM (active) | 1.43 µM (inactive) | 1.89 µM (inactive) | > 100 µM (inactive) | 0.718 µM (active) | 0.0904 µM (active) | 1.09 µM (active) | 3.12 µM (inactive)
5 | O=C1CC2CC3OC3[C@H]3c4cc5c(cc4C(=O)N1C23)OCO5 (stereo partly drawn) | > 100 µM (inactive) | > 100 µM (inactive) | > 100 µM (inactive) | > 100 µM (inactive) | > 100 µM (inactive) | > 100 µM (inactive) | > 100 µM (inactive) | > 100 µM (inactive) | > 100 µM (inactive) | > 100 µM (inactive) | > 100 µM (inactive) | > 100 µM (inactive) |  | > 100 µM (inactive) |  | > 100 µM (inactive) |  | > 100 µM (inactive) |  | > 100 µM (inactive)
6 | CCCCc1oc2ccccc2c1C(=O)c1cc(I)c(OCCN(CC)CC)c(I)c1 [AMIODARONE HYDROCHLORIDE] | 8.51 µM (inactive) |  | 4.54 µM (inactive) | 9.79 µM (inactive) | 3.86 µM (inactive) | 3.88 µM (inactive) | 3.82 µM (inactive) | 3.4 µM (inactive) | 4.89 µM (inactive) | 4.5 µM (inactive) | 5.06 µM (inactive) | 6.5 µM (inactive) | 3.82 µM (inactive) | 4.63 µM (inactive) | 4.7 µM (inactive) | 5.98 µM (inactive) | 7.59 µM (inactive) | 4.59 µM (inactive) | 4.16 µM (inactive) | 5.28 µM (inactive)
7 | NCCCCNOCCCN | > 100 µM (inactive) | > 100 µM (inactive) | > 100 µM (inactive) | > 100 µM (inactive) | > 100 µM (inactive) | > 100 µM (inactive) | > 100 µM (inactive) | > 100 µM (inactive) | > 100 µM (inactive) | > 100 µM (inactive) | 61.5 µM (inactive) | > 100 µM (inactive) | > 100 µM (inactive) | > 100 µM (inactive) | > 100 µM (inactive) | > 100 µM (inactive) | > 100 µM (inactive) | > 100 µM (inactive) | > 100 µM (inactive) | > 100 µM (inactive)
8 | COC(=O)C1=C(O)C(C(=O)OC)[C@@]2(O)[C@@H](C(=O)OC)[C@H](C)C[C@@H]1[C@@H]2C(=O)OC (stereo partly drawn) |  | 59.8 µM (inactive) | 28.1 µM (inactive) | 22.4 µM (inactive) |  | 23.2 µM (inactive) | 32.5 µM (inactive) | 28.3 µM (inactive) | 42.9 µM (inactive) | 39.3 µM (inactive) | 25.2 µM (inactive) |  | 15.4 µM (inactive) |  |  | 26 µM (inactive) | 22.9 µM (inactive) |  | 20.5 µM (inactive) | 23.7 µM (inactive)
9 | NCc1ccccc1-c1c2nc(c(-c3ccccc3CN)c3ccc([nH]3)c(-c3ccccc3CN)c3nc(c(-c4ccccc4CN)c4ccc1[nH]4)C=C3)C=C2 | 22.1 µM (inactive) | 16.4 µM (inactive) | 4.17 µM (inactive) | 23.8 µM (inactive) | 7.08 µM (inactive) | 14.5 µM (inactive) | 19.7 µM (inactive) | > 10 µM (inactive) |  | 13.9 µM (inactive) |  | 19.4 µM (inactive) | 13.1 µM (inactive) |  | 22.9 µM (inactive) |  | 5.96 µM (inactive) | 34.1 µM (inactive) | 18.5 µM (inactive) | 24.9 µM (inactive)
10 | CCOC(=O)C(=O)Nc1c(CC)cccc1C(C)CC (stereo not drawn) | > 100 µM (inactive) | > 100 µM (inactive) | > 100 µM (inactive) | > 100 µM (inactive) | > 100 µM (inactive) | > 100 µM (inactive) | > 100 µM (inactive) | > 100 µM (inactive) | > 100 µM (inactive) | > 100 µM (inactive) | > 100 µM (inactive) | > 100 µM (inactive) | > 100 µM (inactive) | > 100 µM (inactive) | > 100 µM (inactive) | > 100 µM (inactive) | > 100 µM (inactive) | > 100 µM (inactive) | > 100 µM (inactive) | > 100 µM (inactive)
